In patent US20230358677A1, “Reversible Excited-State Photoacids and Photobases as Dynamic Fluorescence Sensors of Protonic Species” (California Institute of Technology, priority 2022, published 2023):
Where two headings read alike, the source gives them in different places.

Assays:
[1] = Acid-base titrations of NS—NH2 in the presence of proton-accepting quenchers (modified Stern-Volmer, Equation 7); settings: for pKa: pKa,BH+ (Equation 7)
Excerpt: Assuming that photoluminescence quenching occurs by ESPT from NS—NH2* to OH^−(aq), the data support that when aOH− is small (i.e. at pH less than about 12), ESPT can be quite slow compared to the excited-state lifetime of NS—NH2*, due to mass action (FIG. 2B). The non-unity quantum yield for ESPT in weakly alkaline aqueous solutions afforded us an opportunity to evaluate a series of aqueous proton-accepting quenchers (glycine (Gly(aq)), proline (Pro(aq)), and trifluoroethanol (TFE(aq))) for their ability to undergo ESPT with NS—NH2*. In order to clearly observe ESPT to a species other than OH^−(aq), added proton-accepting quenchers had to be more basic (ΔG^o<0), or slightly more acidic (ΔG^o>0), than NS—NH2*, and less basic than OH^−(aq). […] As pH values approach and pass the pKa of the proton-accepting quencher, the rate of ESPT slows from a decrease in the concentration of proton-accepting quencher due to its protonation. This is supported by observations from analogous experiments performed using different concentrations of quencher. Best fits of measured photoluminescence spectroscopy data to a modified Stern-Volmer equation for a two-quencher system, including both OH^−(aq) and proton-accepting quencher, provided bimolecular rate constants for deprotonation of the photoacid by each quencher,
where KSV,OH−=K*^−1b and KSV,quencher=k+q,quencherτo,PAH* are the dynamic quenching constants for excited-state proton transfer to OH^−(aq) and proton-accepting quencher, respectively, k+q,quencher is the bimolecular rate constant (M^−1 s^−1) for ESPT quenching by the proton-accepting quencher, and the sum of the activities of B and BH^+ is approximated as the total concentration of the proton-accepting quencher. While the pKa of the proton-accepting quencher is an adjustable parameter during best fitting, extracted pKa values are close to pKa values obtained from the acid-base titration curves of the proton-accepting quenchers. Changing the proton-accepting quencher to one with a smaller pKa value results in a slower non-diffusion-limited rate constant for ESPT with NS—NH2*. The observation of ESPT directly from NS—NH2* to each of two different amino acids, Gly and Pro, is notable, and may have important implications for biological systems where direct protonation of proteins can induce cellular responses.
Table 2 lists driving-force-dependent rate constants for direct excited-state proton transfer from NS—NH2* to various proton-accepting quenchers.
Several embodiments use the steady-state ultraviolet-visible electronic absorption and photoluminescence spectroscopy for characterization. Equal amounts of aromatic amine photoacids are portioned into five separate 100 mL volumetric flasks. For the non-proton-accepting quencher experiments, the five flasks are filled to the volumetric marker with aqueous solutions of 1 M HCl, 1 M KOH, 2 M KOH, 3 M KOH, and 4 M KOH. The aqueous 1 M KOH solution is titrated with the aqueous 1 M HCl solution to reach the desired pH values from 14 to 6, and the H^+ activities are measured using a pH meter (pH/Ion 510). […] Electronic absorption spectra and photoluminescence spectra are acquired using absorbance and fluorescence spectrometer(s), using a square-bottom quartz cuvette (1 cm path length) at room temperature. Electronic absorption spectra are baselined on a spectrum of deionized water and were corrected for scattering of light. Photoluminescence spectra are recorded by exciting with 310 nm light, slit widths for the excitation and emission monochromators were set to 5 nm, and the PMT detector voltage is set to 600 V. Photoluminescence spectra are corrected for changes in solution refractive index, inner filter effects and the wavelength-dependent correction factor of the fluorimeter.

[2] = proton acceptor, aqueous; cited from earlier work
[3] = cited from earlier work
[4] = physchem
[5] = quenching of NS—NH2*, 1 M total quencher

**Q.** Which “bimolecular rate constant, deprotonation of NS—NH2* by the quencher” value ([1]; 1 M total quencher) does the source give for O=C(O)[C@@H]1CCCN1 [Proline] here?
**A.** (1.70±0.05)×10^8 M^−1 s^−1

**Q.** What about the “k+q,corr” value ([1]; corrected rate constant, ESPT from NS—NH2* to the proton acceptor) of the same compound?
**A.** 7.11 ± 0.21 10^8 M^−1 s^−1

**Q.** And the “k+q” value ([1]; direct excited-state proton transfer from NS—NH2* to the proton acceptor)?
**A.** 1.70 ± 0.05 10^8 M^−1 s^−1

**Q.** What about the pKa ([1]; value after the slash) of the same compound?
**A.** 10.8

**Q.** And the pKa ([1]; value before the slash)?
**A.** 10.7

**Q.** And the “KSV,quencher (Equation 7)” value [1, 5]?
**A.** 0.80 ± 0.02 M⁻¹

**Q.** What about the “KSV,quencher (traditional linearized Stern-Volmer)” value [1, 5] of the same compound?
**A.** 0.79 ± 0.01 M⁻¹

**Q.** What about the “Diffusion Coefficient” value [2] of the same compound?
**A.** 8.79 10^−6 cm^2/s

**Q.** And the “pKa, literature value” [3]?
**A.** 10.5

**Q.** What about the pKa [4] of the same compound?
**A.** 10.8
